From patent US10688093B2, “Methods, compositions, and uses of novel Fyn kinase inhibitors” (priority 2015, dated 2020)

Molecular target: full-length recombinant human FYN A (Homo sapiens (Human), UniProt P06241)
Test: ADP-Glo Kinase Assay of FYN kinase inhibition
Type: biochemical
Conditions: primary screen, initial compounds
Summary of the method: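 GST-tagged full-length FYN A (baculovirus, Sf9) at 3 pg preincubated 30 min RT with compound (10-point 3-fold series from 10 μM) in Tris pH 7.5/MgCl2 buffer. 12-mer tyrosine peptide plus 12.5 pmol ATP added, 90 min RT; ADP measured by ADP-Glo luminescence, IC50 from dose-response.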

Chain of full-length recombinant human FYN A (P06241 whole entry): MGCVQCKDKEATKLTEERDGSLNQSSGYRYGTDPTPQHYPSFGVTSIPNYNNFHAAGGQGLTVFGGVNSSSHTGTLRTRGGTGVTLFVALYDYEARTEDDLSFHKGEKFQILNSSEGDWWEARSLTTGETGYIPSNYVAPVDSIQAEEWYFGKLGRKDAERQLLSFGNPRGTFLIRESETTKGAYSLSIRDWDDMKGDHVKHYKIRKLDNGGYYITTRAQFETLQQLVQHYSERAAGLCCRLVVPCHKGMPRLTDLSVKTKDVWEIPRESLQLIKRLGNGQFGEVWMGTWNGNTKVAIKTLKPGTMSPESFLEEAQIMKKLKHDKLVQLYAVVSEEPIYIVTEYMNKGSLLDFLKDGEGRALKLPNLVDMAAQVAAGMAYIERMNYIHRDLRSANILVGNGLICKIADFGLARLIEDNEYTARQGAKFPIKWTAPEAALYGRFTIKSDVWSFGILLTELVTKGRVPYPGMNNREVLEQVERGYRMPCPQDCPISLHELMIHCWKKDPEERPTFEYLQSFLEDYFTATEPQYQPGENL

| SMILES | IC50 [nM] |
| --- | --- |
| NC(=O)c1cccc(-c2ccc3ncc(-c4ccncc4)n3n2)c1 [Compound 313, 3-[3-(4-pyridyl)imidazo [1,2-b]pyridazin-6-yl]benzamide] | 1200 |
| CC(=O)Nc1cccc(-c2cnc3ccc(-c4ccccc4)nn23)c1 [Compound 314, N-[3-(6-phenylimidazo [1,2-b]pyridazin-3-yl)phenyl] acetamide] | 773 |
| Clc1cccc(-c2ccc3ncc(-c4ccncc4)n3n2)c1 [Compound 319, 6-(3-chlorophenyl)-3-(4-pyridyl)imidazo [1,2-b]pyridazine] | 258 |
| COc1cc(-c2ccc3ncc(-c4ccc(OC)c(OC)c4)n3n2)ccc1O [Compound 320, 4-[3-(3,4-dimethoxy-phenyl)imidazo [1,2-b]pyridazin-6-yl]-2-methoxy-phenol] | 222 |
| CC(=O)Nc1cccc(-c2cnc3ccc(-c4cccc(C(F)(F)F)c4)nn23)c1 [Compound 322, N-[3-[6-[3-(trifluoromethyl)phenyl]imidazo [1,2-b]pyridazin-3-yl]phenyl] acetamide] | 1600 |
| COc1cc(-c2ccc3ncc(-c4cccc(CO)c4)n3n2)ccc1O [Compound 324, 4-[3-[3-(hydroxymethyl)phenyl]imidazo [1,2-b]pyridazin-6-yl]-2-methoxy-phenol] | 153 |
| c1ccc(-c2cnc3ccc(-c4ccncc4)nn23)cc1 [Compound 325, 3-phenyl-6-(4-pyridyl)imidazo [1,2-b]pyridazine] | 6930 |
| COc1ccc(-c2cnc3ccc(-c4ccccc4)nn23)cc1OC [Compound 327, 3-(3,4-dimethoxy-phenyl)-6-phenyl-imidazo[1,2-b]pyridazine] | 420 |
| COc1cc(-c2ccc3ncc(-c4cccc(NC(C)=O)c4)n3n2)ccc1O [Compound 330, N-[3-[6-(4-hydroxy-3-methoxy-phenyl)imidazo [1,2-b]pyridazin-3-yl]phenyl] acetamide] | 93 |
| COc1ccc(-c2cnc3ccc(-c4ccoc4)nn23)cc1OC [Compound 334, 3-(3,4-dimethoxy-phenyl)-6-(3-furyl)imidazo [1,2-b]pyridazine] | 983 |
| CC(=O)Nc1cccc(-c2cnc3ccc(-c4ccoc4)nn23)c1 [Compound 335, N-[3-[6-(3-furyl)imidazo [1,2-b]pyridazin-3-yl]phenyl] acetamide] | 1260 |
| OCc1cccc(-c2cnc3ccc(-c4ccoc4)nn23)c1 [Compound 336, [3-[6-(3-furyl)imidazo [1,2-b]pyridazin-3-yl]phenyl] methanol] | 3990 |
| CS(=O)(=O)c1ccc(-c2ccc3ncc(-c4cccc(CO)c4)n3n2)cc1 [Compound 338, [3-[6-(4-methylsulfonyl-phenyl)imidazo [1,2-b]pyridazin-3-yl]phenyl] methanol] | 3040 |
| CC(=O)Nc1cccc(-c2ccc3ncc(-c4ccccc4)n3n2)c1 [Compound 339, N-[3-(3-phenylimidazo [1,2-b]pyridazin-6-yl)phenyl] acetamide] | 3660 |
| COc1cncc(-c2ccc3ncc(-c4cccc(NC(C)=O)c4)n3n2)c1 [Compound 343, N-[3-[6-(5-methoxy-3-pyridyl)imidazo [1,2-b]pyridazin-3-yl]phenyl] acetamide] | 614 |
| COc1cncc(-c2ccc3ncc(-c4cccc(CO)c4)n3n2)c1 [Compound 344] | 2140 |
| c1cc(-c2cnc3ccc(-c4ccc5c(c4)OCO5)nn23)ccn1 [Compound 345, 6-(1,3-benzodioxol-5-yl)-3-(4-pyridyl)imidazo [1,2-b]pyridazine] | 217 |
| CC(=O)Nc1cccc(-c2cnc3ccc(-c4cccc(Cl)c4)nn23)c1 [Compound 347, N-[3-[6-(3-chlorophenyl)imidazo[1,2-b]pyridazin-3-yl]phenyl] acetamide] | 370 |
| COc1cccc(-c2ccc3ncc(-c4cccc(NC(C)=O)c4)n3n2)c1 [Compound 348, N-[3-[6-(3-methoxyphenyl)imidazo[1,2-b]pyridazin-3-yl]phenyl] acetamide] | 409 |
| OCc1cccc(-c2cnc3ccc(-c4cccc(O)c4)nn23)c1 [Compound 349, 3-[3-[3-(hydroxymethyl)phenyl]imidazo [1,2-b]pyridazin-6-yl]phenol] | 954 |
| NC(=O)c1ccc(-c2ccc3ncc(-c4ccccc4)n3n2)cc1 [Compound 350, 4-(3-phenylimidazo [1,2-b]pyridazin-6-yl)benzamide] | 2140 |
| Oc1cccc(-c2ccc3ncc(-c4ccc5c(c4)OCO5)n3n2)c1 [Compound 351, 3-[3-(1,3-benzodioxol-5-yl)imidazo[1,2-b]pyridazin-6-yl]phenol] | 915 |
| COc1cccc(-c2ccc3ncc(-c4cccc(O)c4)n3n2)c1 [Compound 355, 3-[6-(3-methoxyphenyl)imidazo[1,2-b]pyridazin-3-yl]phenol] | 1240 |
| COc1cc(-c2cnc3ccc(-c4ccc(OC)c(OC)c4)nn23)ccc1O [Compound 356, 4-[6-(3,4-dimethoxyphenyl)imidazo[1,2-b]pyridazin-3-yl]-2-methoxy-phenol] | 44.5 |
| COc1ccccc1-c1ccc2ncc(-c3cccc(C(C)=O)c3)n2n1 [Compound 357, 1-[3-[6-(2-methoxyphenyl)imidazo[1,2-b]pyridazin-3-yl]phenyl] ethanone] | 2330 |

The remaining compounds from weak to strong by IC50, led by results:

| IC50 [nM] | SMILES |
| --- | --- |
| 15000 | CN1CCN(c2ccc(Nc3cc4c(cn3)cc(-c3ccccc3)n4Cc3ccccc3)cc2)CC1 [Compound 311, 1-benzyl-N-[4-(4-methylpiperazin-1-yl)phenyl]-2-phenyl-pyrrolo[3,2-c]pyridin-6-amine] |
| 12700 | COc1ccc(Nc2cc3[nH]c(-c4cn[nH]c4)cc3cn2)cc1OC [Compound 310, N-(3,4-dimethoxy-phenyl)-2-(1H-pyrazol-4-yl)-1H-pyrrolo[3,2-2]pyridin-6-amine] |
| 3840 | c1ccc(-c2cnc3ccc(-c4cccnc4)nn23)cc1 [Compound 331, 3-phenyl-6-(3-pyridyl)imidazo [1,2-b]pyridazine] |
| 3130 | COc1cc(-c2ccc3ncc(-c4cccc(NC(C)=O)c4)n3n2)cc(OC)c1OC [Compound 329, N-[3-[6-(3,4,5-trimethoxyphenyl)imidazo[1,2-b]pyridazin-3-yl]phenyl] acetamide] |
| 3120 | COc1ccc(-c2cnc3ccc(-c4ccccc4OC)nn23)cc1OC [Compound 333, 3-(3,4-dimethoxy-phenyl)-6-(2-methoxyphenyl) imidazo[1,2-b]pyridazine] |
| 2850 | COc1ccccc1-c1ccc2ncc(-c3cccc(NC(C)=O)c3)n2n1 [Compound 321, N-[3-[6-(2-methoxyphenyl)imidazo[1,2-b]pyridazin-3-yl]phenyl] acetamide] |
| 1940 | c1ccc(-c2ccc3ncc(-c4cccnc4)n3n2)cc1 [Compound 352, 6-phenyl-3-(3-pyridyl)imidazo [1,2-b]pyridazine] |
| 1750 | OCc1cccc(-c2cnc3ccc(-c4ccccc4)nn23)c1 [Compound 318, [3-(6-phenylimidazo [1,2-b]pyridazin-3-yl)phenyl] methanol] |
| 1330 | COc1ccc(-c2cnc3ccc(-c4ccc(F)cc4)nn23)cc1OC [Compound 328, 3-(3,4-dimethoxy-phenyl)-6-(4-fluorophenyl) imidazo[1,2-b]pyridazine] |
| 1070 | CC(=O)Nc1cccc(-c2cnc3ccc(-c4cccc(O)c4)nn23)c1 [Compound 315, N-[3-[6-(3-hydroxyphenyl)imidazo[1,2-b]pyridazin-3-yl]phenyl] acetamide] |
| 1070 | COc1ccccc1-c1ccc2ncc(-c3cccc(CO)c3)n2n1 [Compound 323, [3-[6-(2-methoxyphenyl)imidazo[1,2-b]pyridazin-3-yl]phenyl] methanol] |
| 1040 | COc1ccc(-c2cnc3ccc(-c4cccc(F)c4)nn23)cc1OC [Compound 316, 3-(3,4-dimethoxy-phenyl)-6-(3-fluorophenyl) imidazo[1,2-b]pyridazine] |
| 1020 | c1cc(-c2cnc3ccc(-c4ccoc4)nn23)ccn1 [Compound 346, 6-(3-furyl)-3-(4-pyridyl)imidazo [1,2-b]pyridazine] |
| 952 | COc1cccc(-c2ccc3ncc(-c4ccc(OC)c(OC)c4)n3n2)c1 [Compound 342, 3-(3,4-dimethoxy-phenyl)-6-(3-methoxyphenyl) imidazo[1,2-b]pyridazine] |
| 585 | COc1ccccc1-c1ccc2ncc(-c3ccncc3)n2n1 [Compound 312, 6-(2-methoxyphenyl)-3-(4-pyridyl)imidazo [1,2-b]pyridazine] |
| 494 | CC(=O)Nc1cccc(-c2cnc3ccc(-c4ccc(CO)cc4)nn23)c1 [Compound 317, N-[3-[6-[4-(hydroxymethyl)phenyl]imidazo [1,2-b]pyridazin-3-yl]phenyl] acetamide] |
| 466 | CC(=O)Nc1cccc(-c2cnc3ccc(-c4cccc(C(C)=O)c4)nn23)c1 [Compound 354, N-[3-[6-(3-acetylphenyl)imidazo[1,2-b]pyridazin-3-yl]phenyl] acetamide] |
| 398 | CN(C)c1ccc(-c2ccc3ncc(-c4ccncc4)n3n2)cc1 [Compound 337, N,N-dimethyl-4-[3-(4-pyridyl)imidazo[1,2-b]pyridazin-6-yl]aniline] |
| 356 | Fc1cccc(-c2ccc3ncc(-c4ccncc4)n3n2)c1 [Compound 341, 6-(3-fluorophenyl)-3-(4-pyridyl) imidazo[1,2-b]pyridazine] |
| 346 | c1cncc(-c2cnc3ccc(-c4cccs4)nn23)c1 [Compound 353, 3-(3-pyridyl)-6-(2-thienyl) imidazo[1,2-b] pyridazine] |
| 255 | OCc1ccc(-c2ccc3ncc(-c4ccncc4)n3n2)cc1 [Compound 332] |
| 229 | c1ccc(-c2ccc3ncc(-c4ccncc4)n3n2)cc1 [Compound 340, 6-phenyl-3-(4-pyridyl)imidazo [1,2-b]pyridazine] |
| 223 | Oc1cccc(-c2ccc3ncc(-c4ccncc4)n3n2)c1 [Compound 326, 3-[3-(4-pyridyl)imidazo [1,2-b]pyridazin-6-yl]phenol] |
